This series deals with Hartley guinea pigs (females). Description: Safety (sensitization) maximization test. The class given is in vivo, guinea pig. As to conditions: for MR: Mean score (average of reaction scores): erythema score 0-3. How it is done: Safety (sensitization) was evaluated using a maximization test.
An area of the skin over the scapula measuring 4×6 cm^2 was shaved in Hartley guinea pigs (females) having body weights of 350 to 400 g, and two rows of three intradermal injections per row were made in the order indicated below.
1) 0.05 mL aliquots of Freund's complete adjuvant (hereinafter, to abbreviated as FCA solution) were intradermally injected at two locations on the left and right sides.
2) 0.05 mL aliquots of an olive oil solution containing 10% of a sclareol derivative obtained in the aforementioned producing examples or sclareol were intradermally injected at two locations on the left and right sides.
3) 0.05 mL aliquots of an emulsified solution obtained by adding an equal volume of sterile water to an FCA solution containing 20% sclareol or sclareol derivative obtained in the aforementioned production examples were intradermally injected at two locations on the left and right sides.
The same sites on the animals were shaved one week after these procedures, and vaseline containing 10% sodium lauryl sulfate was rubbed onto the skin to induce mild inflammation. 24 hours after rubbing, 0.2 mL of olive oil solutions containing 10% sclareol derivative sample of the present invention or sclareol were applied to a piece of gauze, which was then affixed to cover the skin for 48 hours. The abdomens of the animals were shaved on the 21st day after intradermal injection, and olive oil solutions containing 5% and 10% of a sclareol derivative sample of the present invention, or an olive oil solution containing 5% of a sclareol sample were affixed to cover the skin for 24 hours.

The mark [1] stands for this setting: challenge concentration 5% in olive oil, After 24 Hours.
Setting [2] is: challenge concentration 5% in olive oil, After 48 Hours.
The mark [3] stands for this setting: challenge concentration 10% in olive oil, After 24 Hours.
The mark [4] stands for this setting: challenge concentration 10% in olive oil, After 48 Hours.

“Also recorded” adds a separate entry of the source.

`C=C[C@@](C)(O)CCC1[C@@]2(C)CCCC(C)(C)C2CC[C@@]1(C)O` (some centres unmarked) [Sclareol, sclareol, reference compound]: under setting [1], the “PR: Sensitization rate (Number of positive animals/Number of animals used)” value is given as 4/10 and the “MR: Mean score (average of reaction scores)” value (from here on “MR: Mean score”) is given as 0.4. Also, under setting [2], the “PR: Sensitization rate (Number of positive animals/Number of animals used)” value is recorded as 4/10 and the “MR: Mean score” value is 0.4. For the same compound, under “maximization test, guinea pigs”, the “Sensitization (result in words)” value is “has skin sensitizing properties; also recorded: sensitization being confirmed”.
For the compound `CC[C@](C)(O)CCC1[C@@]2(C)CCCC(C)(C)C2CC[C@@]1(C)O` (some centres unmarked) [Hydrogenated sclareol, hydrogenated sclareol], the “PR: Sensitization rate (Number of positive animals/Number of animals used)” value by setting is: under setting [1], 0, (0); under setting [2], 0, (0); under setting [3], 0, (0); under setting [4], 0, (0). For the same compound, the “MR: Mean score” value by setting is: under setting [1], 0, (0); under setting [2], 0, (0); under setting [3], 0, (0); under setting [4], 0, (0).
On to monoacetylated sclareol, for which the “PR: Sensitization rate (Number of positive animals/Number of animals used)” value under setting [1] is given as 0, (0); the “PR: Sensitization rate (Number of positive animals/Number of animals used)” value under setting [2] is 0, (0); the “PR: Sensitization rate (Number of positive animals/Number of animals used)” value under setting [3] was 0, (0); the “PR: Sensitization rate (Number of positive animals/Number of animals used)” value under setting [4] is listed as 0, (0). Also, the “MR: Mean score” value reads like this: under setting [1], 0, (0); under setting [2], 0, (0); under setting [3], 0, (0); under setting [4], 0, (0).
Consider `C=C[C@@](C)(CC[C@@H]1[C@@]2(C)CCCC(C)(C)[C@@H]2CC[C@@]1(C)OC(C)=O)OC(C)=O` [Diacetylated sclareol, diacetylated sclareol], for which the “PR: Sensitization rate (Number of positive animals/Number of animals used)” value runs as follows: under setting [1], 0, (0); under setting [2], 0, (0); under setting [3], 0, (0); under setting [4], 0, (0). Moreover, the “MR: Mean score” value by setting is: under setting [1], 0, (0); under setting [2], 0, (0); under setting [3], 0, (0); under setting [4], 0, (0).

The record behind these values is US8084064B2, “Antiwrinkle agent and skin cosmetic composition” (Kao Corporation, priority 2004, dated 2011).
